Each structure is given as a SMILES string. ≈ marks a conversion by molar mass, not a printed value.

One data set can be described thus: Metabolic stability in rat liver microsomes assessed as intrinsic clearance. The data set is classed as ADME, Microsome. To be noted: read-out: CLH. On the technique in general: Microsomes from liver hold many membrane-bound enzymes, among them those of drug oxidation.
As to `COC[C@H](c1cnn2cc([C@@H](Nc3nnc(C(F)(F)F)o3)C3CCC(F)(F)CC3)nc2c1)N1C[C@@H](C(F)(F)F)NC1=O`, the microsomal CLint was below 25 µL/min/mg.
Same read-out and setting: in the case of `COC[C@H](c1cnn2cc([C@@H](Nc3nnc(C)s3)C3CCC(F)(F)CC3)nc2c1)N1C[C@@H](C(F)(F)F)NC1=O` it was 75 µL/min/mg.
The same measure, in the same setting: in the case of `COC[C@H](c1cnn2cc([C@@H](Nc3nnc(C)o3)C3CCC(F)(F)CC3)nc2c1)N1C[C@@H](C(F)(F)F)NC1=O` it was 28 µL/min/mg; in that of `COC[C@H](c1cnn2cc([C@@H](Nc3ncc(C4CC4)o3)C3CCC(F)(F)CC3)nc2c1)N1C[C@@H](C(F)(F)F)NC1=O`, above 1000 µL/min/mg.
Still for that read-out and setting: in the case of `COC[C@H](c1cnn2cc([C@@H](NC(=O)C(F)=C(C)C)C3CCC(F)(F)CC3)nc2c1)N1C[C@@H](C(F)(F)F)NC1=O` it was above 1000 µL/min/mg.

The nature of the next data set: Equilibrium solubility of compound […] at pH 6.8 by high-throughput analysis. In kind it is physicochemical.
Conditions: not given
As for `COC[C@H](c1cnn2cc([C@@H](Nc3nnc(C(F)(F)F)o3)C3CCC(F)(F)CC3)nc2c1)N1C[C@@H](C(F)(F)F)NC1=O`, the concentration in solution (solubility) came to 270 µM (≈ 165 µg/mL).
On the same count and under the same terms, in the case of `COC[C@H](c1cnn2cc([C@@H](Nc3nnc(C)s3)C3CCC(F)(F)CC3)nc2c1)N1C[C@@H](C(F)(F)F)NC1=O` it was 610 µM (≈ 350 µg/mL).
Still for that read-out and setting: in the case of `COC[C@H](c1cnn2cc([C@@H](Nc3nnc(C)o3)C3CCC(F)(F)CC3)nc2c1)N1C[C@@H](C(F)(F)F)NC1=O` it was above 750 µM; in that of `COC[C@H](c1cnn2cc([C@@H](Nc3ncc(C4CC4)o3)C3CCC(F)(F)CC3)nc2c1)N1C[C@@H](C(F)(F)F)NC1=O`, 270 µM (≈ 158 µg/mL); in that of `COC[C@H](c1cnn2cc([C@@H](NC(=O)C(F)=C(C)C)C3CCC(F)(F)CC3)nc2c1)N1C[C@@H](C(F)(F)F)NC1=O`, 340 µM (≈ 196 µg/mL).

A short description of the next data set: Lipophilicity, logD of compound at pH 7.4. In kind it is physicochemical. To be noted: buffer.
For `COC[C@H](c1cnn2cc([C@@H](Nc3nnc(C(F)(F)F)o3)C3CCC(F)(F)CC3)nc2c1)N1C[C@@H](C(F)(F)F)NC1=O`, the logD – broadly, the decadic logarithm of the distribution of all forms, ionised or not, between an organic phase and buffer at a given pH – was found to be 3.4.
On the same count and under the same terms, in the case of `COC[C@H](c1cnn2cc([C@@H](Nc3nnc(C)s3)C3CCC(F)(F)CC3)nc2c1)N1C[C@@H](C(F)(F)F)NC1=O` it was 2.5; in that of `COC[C@H](c1cnn2cc([C@@H](Nc3nnc(C)o3)C3CCC(F)(F)CC3)nc2c1)N1C[C@@H](C(F)(F)F)NC1=O`, 1.9; in that of `COC[C@H](c1cnn2cc([C@@H](Nc3ncc(C4CC4)o3)C3CCC(F)(F)CC3)nc2c1)N1C[C@@H](C(F)(F)F)NC1=O`, above 4.7.
As for `COC[C@H](c1cnn2cc([C@@H](NC(=O)C(F)=C(C)C)C3CCC(F)(F)CC3)nc2c1)N1C[C@@H](C(F)(F)F)NC1=O`, the logD came out at 3.2.

The next data set is described as follows: Inhibition of biotinylated human IL-17A/AF647-labeled human IL-17RA protein-protein interaction preincubated for 30 mins with compound followed by addition of AF647-labeled human IL-17RA incubated for 90 min by TR-FRET assay.
Conditions: not given
Background: Time-resolved FRET reads energy transfer from a long-lived donor to a nearby acceptor.
Turning to `COC[C@H](c1cnn2cc([C@@H](Nc3nnc(C(F)(F)F)o3)C3CCC(F)(F)CC3)nc2c1)N1C[C@@H](C(F)(F)F)NC1=O`, the IC50 (in general, the concentration that gives 50% inhibition) was determined as 25 nM.
Turning to `COC[C@H](c1cnn2cc([C@@H](Nc3nnc(C)s3)C3CCC(F)(F)CC3)nc2c1)N1C[C@@H](C(F)(F)F)NC1=O`, the half-inhibitory concentration (IC50) is 61 nM.
Same read-out and setting: in the case of `COC[C@H](c1cnn2cc([C@@H](Nc3nnc(C)o3)C3CCC(F)(F)CC3)nc2c1)N1C[C@@H](C(F)(F)F)NC1=O` it was 85 nM; in that of `COC[C@H](c1cnn2cc([C@@H](Nc3ncc(C4CC4)o3)C3CCC(F)(F)CC3)nc2c1)N1C[C@@H](C(F)(F)F)NC1=O`, 80 nM.
On the same count and under the same terms, in the case of `COC[C@H](c1cnn2cc([C@@H](NC(=O)C(F)=C(C)C)C3CCC(F)(F)CC3)nc2c1)N1C[C@@H](C(F)(F)F)NC1=O` it was 19 nM.

Another data set can be described thus: Metabolic stability in human liver microsomes assessed as intrinsic clearance. The data set is classed as ADME, Microsome. The settings on record: read-out: CLH.
As to `COC[C@H](c1cnn2cc([C@@H](Nc3nnc(C(F)(F)F)o3)C3CCC(F)(F)CC3)nc2c1)N1C[C@@H](C(F)(F)F)NC1=O`, the microsomal CLint is below 10 µL/min/mg.
The same measure, in the same setting: in the case of `COC[C@H](c1cnn2cc([C@@H](Nc3nnc(C)s3)C3CCC(F)(F)CC3)nc2c1)N1C[C@@H](C(F)(F)F)NC1=O` it was 50 µL/min/mg.
On the same count and under the same terms, in the case of `COC[C@H](c1cnn2cc([C@@H](Nc3nnc(C)o3)C3CCC(F)(F)CC3)nc2c1)N1C[C@@H](C(F)(F)F)NC1=O` it was 23 µL/min/mg; in that of `COC[C@H](c1cnn2cc([C@@H](Nc3ncc(C4CC4)o3)C3CCC(F)(F)CC3)nc2c1)N1C[C@@H](C(F)(F)F)NC1=O`, 261 µL/min/mg.
As for `COC[C@H](c1cnn2cc([C@@H](NC(=O)C(F)=C(C)C)C3CCC(F)(F)CC3)nc2c1)N1C[C@@H](C(F)(F)F)NC1=O`, the microsomal CLint came out at 161 µL/min/mg.

The next data set can be described thus: Inhibition of IL-6 production in IL-17/TNF-alpha stimulated human NHDF cells incubated for 24 hrs by ELISA. The data set is classed as functional, cell-based. To be noted: 24 h. Background: ELISA stands for enzyme-linked immunosorbent assay.
Turning to `COC[C@H](c1cnn2cc([C@@H](Nc3nnc(C(F)(F)F)o3)C3CCC(F)(F)CC3)nc2c1)N1C[C@@H](C(F)(F)F)NC1=O`, the IC50 came to 15 nM.
Still for that read-out and setting: in the case of `COC[C@H](c1cnn2cc([C@@H](Nc3nnc(C)s3)C3CCC(F)(F)CC3)nc2c1)N1C[C@@H](C(F)(F)F)NC1=O` it was 45 nM; in that of `COC[C@H](c1cnn2cc([C@@H](Nc3nnc(C)o3)C3CCC(F)(F)CC3)nc2c1)N1C[C@@H](C(F)(F)F)NC1=O`, 49 nM.
Same read-out and setting: in the case of `COC[C@H](c1cnn2cc([C@@H](Nc3ncc(C4CC4)o3)C3CCC(F)(F)CC3)nc2c1)N1C[C@@H](C(F)(F)F)NC1=O` it was 64 nM; in that of `COC[C@H](c1cnn2cc([C@@H](NC(=O)C(F)=C(C)C)C3CCC(F)(F)CC3)nc2c1)N1C[C@@H](C(F)(F)F)NC1=O`, 8 nM.

The next data set can be described thus: Apparent permeability coefficient of the compound across apical to basolateral side in dog MDCK cells by high-throughput analysis. In kind it is ADME, cell-based, Canis lupus familiaris.
Conditions: not given
Take `COC[C@H](c1cnn2cc([C@@H](Nc3nnc(C(F)(F)F)o3)C3CCC(F)(F)CC3)nc2c1)N1C[C@@H](C(F)(F)F)NC1=O`: the apical-to-basolateral permeability (Papp A→B) (as a rule, the apparent permeability from the apical to the basolateral side of a cell layer) stood at 8 ×10⁻⁶ cm/s.
As to `COC[C@H](c1cnn2cc([C@@H](Nc3nnc(C)s3)C3CCC(F)(F)CC3)nc2c1)N1C[C@@H](C(F)(F)F)NC1=O`, the Papp A→B was found to be 1.3 ×10⁻⁶ cm/s.
The same measure, in the same setting: in the case of `COC[C@H](c1cnn2cc([C@@H](Nc3nnc(C)o3)C3CCC(F)(F)CC3)nc2c1)N1C[C@@H](C(F)(F)F)NC1=O` it was 0.5 ×10⁻⁶ cm/s; in that of `COC[C@H](c1cnn2cc([C@@H](Nc3ncc(C4CC4)o3)C3CCC(F)(F)CC3)nc2c1)N1C[C@@H](C(F)(F)F)NC1=O`, 17 ×10⁻⁶ cm/s.
The same measure, in the same setting: in the case of `COC[C@H](c1cnn2cc([C@@H](NC(=O)C(F)=C(C)C)C3CCC(F)(F)CC3)nc2c1)N1C[C@@H](C(F)(F)F)NC1=O` it was 25 ×10⁻⁶ cm/s.

Source of the values: ChEMBL document CHEMBL5579899, “Discovery and In Vivo Exploration of 1,3,4-Oxadiazole and α-Fluoroacrylate Containing IL-17 Inhibitors” (J Med Chem, 2024).
